Source: ChEMBL document CHEMBL5649166, “RIP3 induces apoptosis independent of pronecrotic kinase activity” (Mol Cell, 2014)

Tests used:
[1] = target: T1, Dual specificity tyrosine-phosphorylation-regulated kinase 3 (Homo sapiens) (UniProt O43781); assay: Residual activity of human DYRK3 using RRRFRPASPLRGPPK as substrate at 1 uM in presence of 32P-ATP by Hotspot assay relative to control
T1 sequence (whole entry): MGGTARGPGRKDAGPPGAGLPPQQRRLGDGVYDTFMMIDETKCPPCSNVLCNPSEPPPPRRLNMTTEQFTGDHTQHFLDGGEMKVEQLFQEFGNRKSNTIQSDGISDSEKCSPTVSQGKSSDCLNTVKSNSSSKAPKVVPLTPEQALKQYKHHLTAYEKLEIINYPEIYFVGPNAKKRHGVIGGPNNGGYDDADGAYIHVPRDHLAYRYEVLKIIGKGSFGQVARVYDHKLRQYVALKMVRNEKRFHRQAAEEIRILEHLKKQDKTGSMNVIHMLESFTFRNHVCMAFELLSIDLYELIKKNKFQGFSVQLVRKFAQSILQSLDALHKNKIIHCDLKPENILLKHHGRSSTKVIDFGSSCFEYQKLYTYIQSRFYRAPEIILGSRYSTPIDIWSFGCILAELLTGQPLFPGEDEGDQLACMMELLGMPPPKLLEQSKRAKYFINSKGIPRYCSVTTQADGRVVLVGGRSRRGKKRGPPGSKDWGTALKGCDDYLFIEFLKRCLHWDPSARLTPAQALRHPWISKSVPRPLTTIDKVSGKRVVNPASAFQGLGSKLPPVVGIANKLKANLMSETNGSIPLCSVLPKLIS

[2] = target: Insulin-like growth factor 1 receptor (Homo sapiens) (UniProt P08069); assay: Inhibition of human IGF1R using KKKSPGEYVNIEFG as substrate at 1 uM in presence of 32P-ATP by Hotspot assay relative to control; values are per cent of control
[3] = target: Casein kinase I isoform gamma-3 (Homo sapiens) (UniProt Q9Y6M4); assay: Inhibition of human CK1g3 using KRRRAL[pS]VASLPGL as substrate at 1 uM in presence of 32P-ATP by Hotspot assay relative to control; values are per cent of control
[4] = target: Proto-oncogene tyrosine-protein kinase ROS (Homo sapiens) (UniProt P08922); assay: Inhibition of human ROS/ROS1 using KKKSPGEYVNIEFG as substrate at 1 uM in presence of 32P-ATP by Hotspot assay relative to control; values are per cent of control
[5] = target: T2, MAP kinase-activated protein kinase 5 (Homo sapiens) (UniProt Q8IW41); assay: Inhibition of human MAPKAPK5/PRAK using KKLNRTLSVA as substrate at 1 uM in presence of 32P-ATP by Hotspot assay relative to control; values are per cent of control
T2 sequence (whole entry): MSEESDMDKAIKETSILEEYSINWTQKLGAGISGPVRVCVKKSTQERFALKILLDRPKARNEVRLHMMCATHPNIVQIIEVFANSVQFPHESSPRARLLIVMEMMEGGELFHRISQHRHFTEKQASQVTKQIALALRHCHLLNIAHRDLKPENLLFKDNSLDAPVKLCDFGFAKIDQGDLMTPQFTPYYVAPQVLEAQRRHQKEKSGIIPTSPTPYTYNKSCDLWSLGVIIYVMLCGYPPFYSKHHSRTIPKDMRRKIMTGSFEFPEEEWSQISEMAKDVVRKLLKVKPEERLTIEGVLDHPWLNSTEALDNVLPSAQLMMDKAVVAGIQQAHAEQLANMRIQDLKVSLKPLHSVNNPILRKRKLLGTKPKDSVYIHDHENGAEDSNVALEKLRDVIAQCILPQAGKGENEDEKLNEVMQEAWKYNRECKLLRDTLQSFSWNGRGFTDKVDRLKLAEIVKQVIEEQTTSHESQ

[6] = target: T3, Protein kinase C zeta type (Homo sapiens) (UniProt Q05513); assay: Inhibition of human PKCzeta using ERMRPRKRQGSVRRRV as substrate at 1 uM in presence of 32P-ATP by Hotspot assay relative to control; values are per cent of control
T3 sequence (whole entry): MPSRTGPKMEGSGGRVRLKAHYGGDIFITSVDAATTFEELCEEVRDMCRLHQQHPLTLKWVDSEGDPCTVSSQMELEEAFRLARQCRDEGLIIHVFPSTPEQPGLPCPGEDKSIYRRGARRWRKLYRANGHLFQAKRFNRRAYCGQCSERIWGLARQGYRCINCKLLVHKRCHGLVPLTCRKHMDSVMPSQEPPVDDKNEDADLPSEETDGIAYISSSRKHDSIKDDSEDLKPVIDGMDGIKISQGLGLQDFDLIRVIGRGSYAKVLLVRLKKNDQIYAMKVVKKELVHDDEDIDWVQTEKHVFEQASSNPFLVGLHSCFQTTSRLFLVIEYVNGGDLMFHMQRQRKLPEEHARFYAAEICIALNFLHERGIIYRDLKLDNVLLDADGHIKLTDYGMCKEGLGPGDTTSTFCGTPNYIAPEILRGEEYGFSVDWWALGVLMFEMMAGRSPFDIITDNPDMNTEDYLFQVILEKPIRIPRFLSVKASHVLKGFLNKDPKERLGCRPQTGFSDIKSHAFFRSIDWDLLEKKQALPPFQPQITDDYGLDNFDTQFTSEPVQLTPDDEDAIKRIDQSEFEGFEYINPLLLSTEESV

[7] = target: NT-3 growth factor receptor (Homo sapiens) (UniProt Q16288); assay: Inhibition of human TRKC using poly[Glu:Tyr] (4:1) as substrate at 1 uM in presence of 32P-ATP by Hotspot assay relative to control; values are per cent of control
[8] = target: Fibroblast growth factor receptor 4 (Homo sapiens) (UniProt P22455); assay: Inhibition of human FGFR4 using poly[Glu:Tyr] (4:1) as substrate at 1 uM in presence of 32P-ATP by Hotspot assay relative to control; values are per cent of control
[9] = target: Platelet-derived growth factor receptor alpha (Homo sapiens) (UniProt P16234); assay: Inhibition of human PDGFRa using poly[Glu:Tyr] (4:1) as substrate at 1 uM in presence of 32P-ATP by Hotspot assay relative to control; values are per cent of control
[10] = target: Calcium/calmodulin-dependent protein kinase kinase 1 (Homo sapiens) (UniProt Q8N5S9); assay: Inhibition of human CAMKK1 using myelin basic protein as substrate at 1 uM in presence of 32P-ATP by Hotspot assay relative to control; values are per cent of control
[11] = target: TGF-beta receptor type-2 (Homo sapiens) (UniProt P37173); assay: Inhibition of human TGFBR2 using myelin basic protein as substrate at 1 uM in presence of 32P-ATP by Hotspot assay relative to control; values are per cent of control
TGF-beta receptor type-2 (Homo sapiens), sequence (P37173 whole entry): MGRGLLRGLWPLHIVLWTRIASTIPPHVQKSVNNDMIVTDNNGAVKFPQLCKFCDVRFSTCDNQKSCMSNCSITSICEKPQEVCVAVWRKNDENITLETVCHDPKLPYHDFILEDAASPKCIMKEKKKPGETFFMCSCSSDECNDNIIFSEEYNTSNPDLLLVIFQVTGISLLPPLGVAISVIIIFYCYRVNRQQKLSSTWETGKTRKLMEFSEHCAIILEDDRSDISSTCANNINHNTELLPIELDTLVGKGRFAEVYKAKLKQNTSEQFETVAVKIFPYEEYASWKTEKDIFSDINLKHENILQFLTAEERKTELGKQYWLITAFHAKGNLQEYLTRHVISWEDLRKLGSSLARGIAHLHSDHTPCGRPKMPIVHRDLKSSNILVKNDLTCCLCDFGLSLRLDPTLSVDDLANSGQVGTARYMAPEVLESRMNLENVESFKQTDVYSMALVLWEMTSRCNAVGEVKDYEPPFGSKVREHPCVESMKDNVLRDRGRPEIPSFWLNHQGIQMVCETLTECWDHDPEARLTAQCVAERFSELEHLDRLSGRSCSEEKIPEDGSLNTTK

Calcium/calmodulin-dependent protein kinase kinase 1 (Homo sapiens), sequence (Q8N5S9 whole entry, looked up): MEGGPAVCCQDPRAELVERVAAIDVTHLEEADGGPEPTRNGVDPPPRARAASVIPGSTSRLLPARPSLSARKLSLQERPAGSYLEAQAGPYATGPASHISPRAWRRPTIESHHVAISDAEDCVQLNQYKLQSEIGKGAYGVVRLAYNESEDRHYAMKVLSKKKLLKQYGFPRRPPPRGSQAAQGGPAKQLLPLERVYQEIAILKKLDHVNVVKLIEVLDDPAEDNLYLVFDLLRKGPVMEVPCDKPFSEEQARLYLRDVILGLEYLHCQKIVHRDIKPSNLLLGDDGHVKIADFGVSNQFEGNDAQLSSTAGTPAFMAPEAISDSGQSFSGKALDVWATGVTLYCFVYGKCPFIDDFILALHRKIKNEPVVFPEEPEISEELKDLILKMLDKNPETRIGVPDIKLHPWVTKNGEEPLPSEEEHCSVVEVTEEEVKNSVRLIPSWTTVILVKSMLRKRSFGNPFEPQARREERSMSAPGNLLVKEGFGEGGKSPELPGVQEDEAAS
NT-3 growth factor receptor (Homo sapiens), sequence (Q16288 32-839 limits assumed): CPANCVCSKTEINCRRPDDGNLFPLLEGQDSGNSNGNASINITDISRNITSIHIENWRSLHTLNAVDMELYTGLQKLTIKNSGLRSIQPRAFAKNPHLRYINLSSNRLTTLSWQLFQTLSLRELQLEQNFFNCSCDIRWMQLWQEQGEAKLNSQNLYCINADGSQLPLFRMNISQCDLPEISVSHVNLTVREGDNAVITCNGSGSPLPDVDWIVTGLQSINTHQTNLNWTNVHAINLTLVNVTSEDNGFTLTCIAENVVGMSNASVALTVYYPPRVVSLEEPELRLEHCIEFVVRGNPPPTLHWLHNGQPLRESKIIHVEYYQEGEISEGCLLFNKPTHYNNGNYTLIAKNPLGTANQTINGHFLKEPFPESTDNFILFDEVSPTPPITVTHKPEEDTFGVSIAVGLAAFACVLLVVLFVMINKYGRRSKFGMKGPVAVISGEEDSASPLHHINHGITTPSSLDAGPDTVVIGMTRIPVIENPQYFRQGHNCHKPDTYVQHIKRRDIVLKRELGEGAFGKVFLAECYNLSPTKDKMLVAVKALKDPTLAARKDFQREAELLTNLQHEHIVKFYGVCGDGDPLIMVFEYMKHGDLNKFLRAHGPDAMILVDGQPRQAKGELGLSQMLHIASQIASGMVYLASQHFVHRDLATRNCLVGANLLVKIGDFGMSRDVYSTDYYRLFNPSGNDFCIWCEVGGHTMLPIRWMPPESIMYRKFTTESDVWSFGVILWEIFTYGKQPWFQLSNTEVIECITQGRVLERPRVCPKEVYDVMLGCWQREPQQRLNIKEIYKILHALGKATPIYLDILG
Casein kinase I isoform gamma-3 (Homo sapiens), sequence (Q9Y6M4 whole entry, looked up, canonical isoform): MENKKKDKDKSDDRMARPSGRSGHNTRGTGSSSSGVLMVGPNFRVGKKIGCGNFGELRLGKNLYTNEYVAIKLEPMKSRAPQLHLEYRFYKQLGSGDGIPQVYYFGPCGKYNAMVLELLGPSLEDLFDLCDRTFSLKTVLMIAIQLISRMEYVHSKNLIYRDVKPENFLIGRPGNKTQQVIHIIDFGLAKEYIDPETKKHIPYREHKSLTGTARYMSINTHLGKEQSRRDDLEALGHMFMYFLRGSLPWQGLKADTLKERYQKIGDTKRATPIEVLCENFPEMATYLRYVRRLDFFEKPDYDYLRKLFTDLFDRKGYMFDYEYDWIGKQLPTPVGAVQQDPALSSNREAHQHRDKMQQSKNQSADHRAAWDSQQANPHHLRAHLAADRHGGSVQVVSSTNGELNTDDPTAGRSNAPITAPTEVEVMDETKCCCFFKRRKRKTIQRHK
Proto-oncogene tyrosine-protein kinase ROS (Homo sapiens), sequence (P08922 whole entry): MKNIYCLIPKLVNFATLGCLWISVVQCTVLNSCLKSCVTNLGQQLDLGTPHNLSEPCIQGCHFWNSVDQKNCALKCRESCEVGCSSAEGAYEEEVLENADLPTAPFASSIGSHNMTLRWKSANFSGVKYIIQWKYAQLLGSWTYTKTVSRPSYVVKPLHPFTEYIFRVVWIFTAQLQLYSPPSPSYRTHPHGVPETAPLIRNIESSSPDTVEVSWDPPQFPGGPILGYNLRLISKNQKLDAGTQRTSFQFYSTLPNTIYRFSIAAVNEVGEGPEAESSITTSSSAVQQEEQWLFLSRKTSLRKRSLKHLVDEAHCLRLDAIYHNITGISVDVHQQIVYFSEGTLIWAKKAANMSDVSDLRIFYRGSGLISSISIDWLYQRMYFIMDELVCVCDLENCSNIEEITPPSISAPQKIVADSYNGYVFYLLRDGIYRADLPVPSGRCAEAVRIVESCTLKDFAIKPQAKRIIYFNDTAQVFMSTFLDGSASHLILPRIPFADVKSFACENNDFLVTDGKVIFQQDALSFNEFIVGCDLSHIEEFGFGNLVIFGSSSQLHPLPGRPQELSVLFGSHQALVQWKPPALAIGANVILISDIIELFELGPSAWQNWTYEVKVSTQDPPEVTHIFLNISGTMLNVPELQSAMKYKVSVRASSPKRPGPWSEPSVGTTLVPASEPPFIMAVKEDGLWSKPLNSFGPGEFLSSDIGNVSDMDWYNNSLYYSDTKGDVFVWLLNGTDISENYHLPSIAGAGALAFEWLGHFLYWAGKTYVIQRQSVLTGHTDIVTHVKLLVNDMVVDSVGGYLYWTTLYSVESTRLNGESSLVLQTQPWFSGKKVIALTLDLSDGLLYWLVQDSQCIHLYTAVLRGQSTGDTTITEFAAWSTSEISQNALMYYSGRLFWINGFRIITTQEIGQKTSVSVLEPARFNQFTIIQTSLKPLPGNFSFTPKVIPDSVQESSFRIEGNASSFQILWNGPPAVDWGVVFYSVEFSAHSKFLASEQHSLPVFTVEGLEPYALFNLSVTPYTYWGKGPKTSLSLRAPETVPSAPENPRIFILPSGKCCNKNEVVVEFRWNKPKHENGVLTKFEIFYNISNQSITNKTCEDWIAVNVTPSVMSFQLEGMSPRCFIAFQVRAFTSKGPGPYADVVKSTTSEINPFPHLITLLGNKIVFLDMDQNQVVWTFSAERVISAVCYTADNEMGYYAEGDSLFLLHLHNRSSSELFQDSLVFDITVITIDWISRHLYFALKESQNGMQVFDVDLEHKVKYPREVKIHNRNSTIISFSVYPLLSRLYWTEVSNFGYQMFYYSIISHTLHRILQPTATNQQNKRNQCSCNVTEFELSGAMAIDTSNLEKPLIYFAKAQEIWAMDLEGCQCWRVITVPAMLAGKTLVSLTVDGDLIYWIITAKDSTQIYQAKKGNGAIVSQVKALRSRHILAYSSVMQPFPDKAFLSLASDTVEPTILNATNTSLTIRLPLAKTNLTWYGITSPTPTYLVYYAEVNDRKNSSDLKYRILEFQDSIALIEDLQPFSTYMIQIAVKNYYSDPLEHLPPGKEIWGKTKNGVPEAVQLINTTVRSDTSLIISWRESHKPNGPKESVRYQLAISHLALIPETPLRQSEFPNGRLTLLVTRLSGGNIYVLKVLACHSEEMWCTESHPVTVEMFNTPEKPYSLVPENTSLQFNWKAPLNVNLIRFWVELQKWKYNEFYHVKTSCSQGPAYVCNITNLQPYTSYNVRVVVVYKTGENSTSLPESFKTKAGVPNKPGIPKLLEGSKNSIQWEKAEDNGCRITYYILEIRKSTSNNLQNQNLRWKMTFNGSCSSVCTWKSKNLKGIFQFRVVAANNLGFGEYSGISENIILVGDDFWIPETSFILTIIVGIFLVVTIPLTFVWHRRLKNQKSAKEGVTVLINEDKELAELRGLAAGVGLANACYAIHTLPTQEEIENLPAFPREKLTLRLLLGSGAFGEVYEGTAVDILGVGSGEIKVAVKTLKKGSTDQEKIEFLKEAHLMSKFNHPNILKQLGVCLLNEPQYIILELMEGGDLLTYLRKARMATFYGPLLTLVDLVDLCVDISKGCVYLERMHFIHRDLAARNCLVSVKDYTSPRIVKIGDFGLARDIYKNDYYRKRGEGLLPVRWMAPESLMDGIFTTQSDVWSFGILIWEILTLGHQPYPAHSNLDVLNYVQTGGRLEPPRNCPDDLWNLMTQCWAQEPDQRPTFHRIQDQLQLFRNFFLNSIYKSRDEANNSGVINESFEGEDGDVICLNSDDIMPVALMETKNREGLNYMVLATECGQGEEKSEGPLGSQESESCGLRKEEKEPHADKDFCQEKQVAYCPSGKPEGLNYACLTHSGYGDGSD

Row | Structure (SMILES) | residual activity [1] [%] | residual activity [2] [%] | residual activity [3] [%] | residual activity [4] [%] | residual activity [5] [%] | residual activity [6] [%] | residual activity [7] [%] | residual activity [8] [%] | residual activity [9] [%] | residual activity [10] [%] | residual activity [11] [%]
1 | Cc1cc(-c2cnc(N)c3c(-c4ccc5scnc5c4)csc23)n(C)n1 | 92.9 | 101 | 88.2 | 78.1 | 90.5 | 101 | 95.3 | 47.4 | 9.84 | 98.6 | 35.2
2 | CC(C)S(=O)(=O)c1ccc2nccc(Nc3ccc4scnc4c3)c2c1 | 106 | 100 | 103 | 89.6 | 102 | 96.3 | 87.2 | 77.6 | 74.6 | 99.3 | 101
3 | CNC(=O)c1ccc2c(c1)ncn2-c1ccc(CC(=O)OC(C)(C)C)cc1 | 101 | 97.6 | 97.5 | 99 | 103 | 96.4 | 98 | 93.4 | 32.7 | 77.3 | 73.3
